According to patent publication US20240316012A1, “METHODS FOR TREATING LYMPHOMA” (Northwestern University, priority 2023, published 2024):

What was measured:
[1] = test system: PDCD1-mutant lymphoma cells (primary CTCL); assay: Inhibitor treatment of human cells in vitro, division index, PDCD1-mutant CTCL cells; type: cell-based; conditions: 2-DG 1 mM, everolimus 0.1 μM, BMS-303141 10 μM; anti-CD3/anti-CD28 beads, 6 days; FIG. 7E
Description: (§1) FIGS. 7A-7H show ACLY dependency and AP-1 activation in human PDCD1 defective T-NHL. […] CNA, copy number aberrations. FIG. 7B GSEA for the indicated gene sets based on RNA-seq data from the 21 CTCL patients shown in (a). NES, normalized enrichment score; FDR, false discovery rate. […] P=one-way ANOVA and two-sided Student's t-test. Shown are the mean±SD and individual data points. […] FACS-sorted malignant cells were stimulated with anti-CD3/anti-CD28 beads, and 2-NBDG uptake was determined at the indicated time points. P=two-sided Student's t-test. Shown are the mean±SEM and individual data points. […] CFSE, carboxyfluorescein succinimidyl ester. P=two-sided Student's t-test. The data are presented as the mean±SEM and individual data points. […] Legend as in (5a). […] FIG. 7H GSEA for the indicated gene sets with RNA-seq data from 21 CTCL PDCD1mut” or “PDCD1 wt, and three patients with hyperprogression. NES, normalized enrichment score; FDR, false discovery rate. FIGS. 7A and 7B, Data from a single experiment with 21 patients. FIGS. 7C and 7D, Data from one experiment with three patients per group and three healthy donors. FIG. 7E, Data from one experiment with three patients and three healthy donors. FIGS. 7F and 7G, Data from one experiment with three patients per group. FIG. 7H, Data from a single experiment.
(§2) Isolation of primary human CTCL cells. This study was approved by the Northwestern University Institutional Review Board. Patients provided informed consent for inclusion in the study. […] The tumor burden for each patient was determined using well-validated clinical markers, taking whichever value was higher between Sezary cell counts or the CD26 negative cell number by clinical flow cytometry. These were analyzed in conjunction with white blood cell and absolute lymphocyte counts.
(§3) Inhibitor treatment of human cells in vitro Malignant CTCL cells and CD4^+ T cells from healthy donors were isolated as previously described. […] After 6 days, the cells were analyzed by flow cytometry, and the division index was determined using the FlowJo proliferation tool (v10.6, FlowJo LLC).

[2] = test system: PD-1 wild-type tumors (primary CTCL); assay: Inhibitor treatment of human cells in vitro, division index, PD-1 wild-type CTCL cells; type: cell-based; conditions: 2-DG 1 mM, everolimus 0.1 μM, BMS-303141 10 μM; 6 days; FIG. 7E
Description: as §1, §2, §3

Structure (SMILES) | viability, division and proliferation of PDCD1-mutant cancer cells (relative division index) [1] | response of stage-matched PD-1 wild-type tumors (relative division index) [2]
O=CC[C@@H](O)[C@H](O)[C@H](O)CO [2-DG, 2-deoxy-D-glucose] | significantly impaired cell proliferation | resistant
COc1ccc(-c2ccccc2)cc1NS(=O)(=O)c1cc(Cl)cc(Cl)c1O [BMS-303141] | significantly impaired cell proliferation | resistant
